Laboratory results published in patent US11891365B2, “3-alkyl-4-amido-bicyclic [4,5,0] hydroxamic acids as HDAC inhibitors” (Valo Health, Inc., priority 2015, dated 2024).

These molecules were tested against T1, Full length human recombinant HDAC6 protein (Homo sapiens, UniProt Q9UBN7) (assay: In vitro histone deacetylase assay: enzymatic HDAC6 electrophoretic mobility shift assay). Details: 1 nM enzyme, 2 μM peptide substrate RHKK(Ac)-NH2, 25° C., 12 concentrations; read-out: Inhibitory Concentration (IC50) Values against HDAC6, Activity Range.
T1 sequence (Q9UBN7 1-1215): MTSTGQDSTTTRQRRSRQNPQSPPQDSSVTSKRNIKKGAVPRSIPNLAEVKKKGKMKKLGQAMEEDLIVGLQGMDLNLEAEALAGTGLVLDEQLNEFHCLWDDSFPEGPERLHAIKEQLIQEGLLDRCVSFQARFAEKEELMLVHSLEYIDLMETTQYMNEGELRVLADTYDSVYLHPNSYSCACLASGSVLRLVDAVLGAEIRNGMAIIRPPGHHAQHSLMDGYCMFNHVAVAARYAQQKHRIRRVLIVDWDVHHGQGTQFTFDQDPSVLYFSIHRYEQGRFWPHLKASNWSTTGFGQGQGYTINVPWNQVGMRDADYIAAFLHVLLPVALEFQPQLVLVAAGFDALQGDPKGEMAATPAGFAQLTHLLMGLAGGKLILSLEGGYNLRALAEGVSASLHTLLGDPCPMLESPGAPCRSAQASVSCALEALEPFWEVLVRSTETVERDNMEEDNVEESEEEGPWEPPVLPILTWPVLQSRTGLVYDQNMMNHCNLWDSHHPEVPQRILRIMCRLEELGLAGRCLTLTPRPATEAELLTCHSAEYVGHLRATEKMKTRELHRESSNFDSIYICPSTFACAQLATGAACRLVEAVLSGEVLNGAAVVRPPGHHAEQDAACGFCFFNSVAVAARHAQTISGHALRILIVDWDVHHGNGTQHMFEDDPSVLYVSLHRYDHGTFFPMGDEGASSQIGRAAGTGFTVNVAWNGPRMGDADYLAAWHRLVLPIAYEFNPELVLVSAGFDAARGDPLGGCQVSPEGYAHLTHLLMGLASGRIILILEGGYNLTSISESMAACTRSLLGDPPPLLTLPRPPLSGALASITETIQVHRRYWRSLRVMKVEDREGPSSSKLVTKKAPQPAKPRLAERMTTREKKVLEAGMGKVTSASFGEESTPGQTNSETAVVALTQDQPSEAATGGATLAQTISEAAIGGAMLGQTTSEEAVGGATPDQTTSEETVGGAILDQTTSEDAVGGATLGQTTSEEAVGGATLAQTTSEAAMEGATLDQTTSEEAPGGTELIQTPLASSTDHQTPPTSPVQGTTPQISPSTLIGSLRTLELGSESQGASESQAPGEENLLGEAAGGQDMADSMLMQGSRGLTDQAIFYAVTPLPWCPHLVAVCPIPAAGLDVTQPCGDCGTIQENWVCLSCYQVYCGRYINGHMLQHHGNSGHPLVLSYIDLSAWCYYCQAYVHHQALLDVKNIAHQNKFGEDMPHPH
Type: biochemical
For `O=C(NO)c1ccc2c(c1)OCCN(C(=O)C1(c3cnccn3)CC1)C2` [N-hydroxy-4-(1-(pyrazin-2-yl)cyclopropane-1-carbonyl)-2,3,4,5-tetrahydrobenzo[f][1,4]oxazepine-8-carboxamide], the IC50 was ≤ 100 nM.
In the case of `CC(=O)N1Cc2ccc(C(=O)NO)cc2O[C@@H](C)C1` [(S)-4-acetyl-N-hydroxy-2-methyl-2,3,4,5-tetrahydrobenzo[f][1,4]oxazepine-8-carboxamide], the IC50 is reported as > 500 nM.
With `CO[C@H]1CC[C@@H](C(=O)N2CCOc3cc(C(=O)NO)ccc3[C@@H]2C)CC1` (single isomer, unassigned) the IC50 was ≤ 100 nM.
`CC(C)[C@@H]1CN(C=O)Cc2ccc(C(=O)NO)cc2O1` [(R)-4-formyl-N-hydroxy-2-isopropyl-2,3,4,5-tetrahydrobenzo[f][1,4]oxazepine-8-carboxamide] gave an IC50 of 100 to 500 nM.
With `COC1(C(=O)N2CCOc3cc(C(=O)NO)ccc3C2)CCC1` [N-hydroxy-4-(1-methoxycyclobutane-1-carbonyl)-2,3,4,5-tetrahydrobenzo[f][1,4]oxazepine-8-carboxamide] the IC50 was ≤ 100 nM.
For `O=C(NO)c1ccc2c(c1)OCCN(C(=O)c1ccc(C(F)(F)F)cc1)C2` [N-hydroxy-4-(4-(trifluoromethyl)benzoyl)-2,3,4,5-tetrahydrobenzo[f][1,4]oxazepine-8-carboxamide], the IC50 was 100 to 500 nM.
Molecule `COC(C)(C(=O)N1CCOc2cc(C(=O)NO)ccc2C1)c1ccccc1` (stereo not drawn) [N-hydroxy-4-(2-methoxy-2-phenylpropanoyl)-2,3,4,5-tetrahydrobenzo[f][1,4]oxazepine-8-carboxamide] has an IC50 of 100 to 500 nM.
Work on `O=C(NO)c1cnc2c(c1)OCCN(C(=O)C1CCCCC1)C2` [4-(cyclohexanecarbonyl)-N-hydroxy-2,3,4,5-tetrahydropyrido[2,3-f][1,4]oxazepine-8-carboxamide] yielded an IC50 of 100 to 500 nM.
In the case of `CC(Cc1ccccc1)C(=O)N1CCOc2cc(C(=O)NO)ccc2C1` (stereo not drawn) [N-hydroxy-4-(2-methyl-3-phenylpropanoyl)-2,3,4,5-tetrahydrobenzo[f][1,4]oxazepine-8-carboxamide], the IC50 is reported as ≤ 100 nM.
In the case of `C[C@H]1COc2cc(C(=O)NO)ccc2CN1C(=O)C1CS(=O)(=O)C1` [(S)-4-(1,1-dioxidothietane-3-carbonyl)-N-hydroxy-3-methyl-2,3,4,5-tetrahydrobenzo[f][1,4]oxazepine-8-carboxamide], the IC50 is reported as ≤ 100 nM.
`CC(C)COc1ccc(C(C)(C)C(=O)N2CCOc3cc(C(=O)NO)ccc3C2)cc1` [N-hydroxy-4-(2-(4-isobutoxyphenyl)-2-methylpropanoyl)-2,3,4,5-tetrahydrobenzo[f][1,4]oxazepine-8-carboxamide] gave an IC50 of 100 to 500 nM.
With `C[C@H]1c2ccc(C(=O)NO)cc2OCCN1C(=O)C1(C)CCOCC1` [(S)-N-hydroxy-5-methyl-4-(4-methyltetrahydro-2H-pyran-4-carbonyl)-2,3,4,5-tetrahydrobenzo[f][1,4]oxazepine-8-carboxamide] the IC50 was ≤ 100 nM.
With `CC(C)[C@H]1COc2cc(C(=O)NO)ccc2CN1C(=O)CC1CCOCC1` [(S)-N-hydroxy-3-isopropyl-4-(2-(tetrahydro-2H-pyran-4-yl)acetyl)-2,3,4,5-tetrahydrobenzo[f][1,4]oxazepine-8-carboxamide] the IC50 was 100 to 500 nM.
In the case of `COC(C)(C)C(=O)N1Cc2ccc(C(=O)NO)cc2OC[C@@H]1C` [(S)-N-hydroxy-4-(2-methoxy-2-methylpropanoyl)-3-methyl-2,3,4,5-tetrahydrobenzo[f][1,4]oxazepine-8-carboxamide], the IC50 is reported as ≤ 100 nM.
`C[C@H]1COc2cc(C(=O)NO)ccc2CN1C(=O)C1CCS(=O)(=O)C1` (stereo partly drawn) [(3S)-4-(1,1-dioxidotetrahydrothiophene-3-carbonyl)-N-hydroxy-3-methyl-2,3,4,5-tetrahydrobenzo[f][1,4]oxazepine-8-carboxamide] was tested, and the IC50 was ≤ 100 nM.
With `CC(C)[C@@H]1CN(C(=O)C2CCOCC2)Cc2ccc(C(=O)NO)cc2O1` [(R)-N-hydroxy-2-isopropyl-4-(tetrahydro-2H-pyran-4-carbonyl)-2,3,4,5-tetrahydrobenzo[f][1,4]oxazepine-8-carboxamide] the IC50 was 100 to 500 nM.
For `COC1(C(=O)N2Cc3ccc(C(=O)NO)cc3OC[C@@H]2C)CCOCC1` [(S)-N-hydroxy-4-(4-methoxytetrahydro-2H-pyran-4-carbonyl)-3-methyl-2,3,4,5-tetrahydrobenzo[f][1,4]oxazepine-8-carboxamide], the IC50 was ≤ 100 nM.
In the case of `C[C@H]1COc2cc(C(=O)NO)ccc2CN1C(=O)CCOCC(F)(F)F` [(S)-N-hydroxy-3-methyl-4-(3-(2,2,2-trifluoroethoxy)propanoyl)-2,3,4,5-tetrahydrobenzo[f][1,4]oxazepine-8-carboxamide], the IC50 is reported as ≤ 100 nM.
With `O=C(NO)c1ccc2c(c1)OCCN(C(=O)C1(c3ccccn3)CC1)C2` [N-hydroxy-4-(1-(pyridin-2-yl)cyclopropane-1-carbonyl)-2,3,4,5-tetrahydrobenzo[f][1,4]oxazepine-8-carboxamide] the IC50 was ≤ 100 nM.
`CC1(C)CC(C(=O)N2CCOc3cc(C(=O)NO)ccc3C2)CCO1` (stereo not drawn) [4-(2,2-dimethyltetrahydro-2H-pyran-4-carbonyl)-N-hydroxy-2,3,4,5-tetrahydrobenzo[f][1,4]oxazepine-8-carboxamide] showed an IC50 of 100 to 500 nM.
`C[C@H]1COc2cc(C(=O)NO)ccc2CN1C(=O)[C@H]1CCCCO1` [(S)-N-hydroxy-3-methyl-4-((R)-tetrahydro-2H-pyran-2-carbonyl)-2,3,4,5-tetrahydrobenzo[f][1,4]oxazepine-8-carboxamide] was tested, and the IC50 was ≤ 100 nM.
With `C[C@H]1COc2cc(C(=O)NO)ccc2CN1C(=O)CCOc1ccc(F)cc1` [(S)-4-(3-(4-fluorophenoxy)propanoyl)-N-hydroxy-3-methyl-2,3,4,5-tetrahydrobenzo[f][1,4]oxazepine-8-carboxamide] the IC50 was ≤ 100 nM.
`O=C(NO)c1ccc2c(c1)OCCN(C(=O)C1CC13CCNCC3)C2` (stereo not drawn) [N-hydroxy-4-(6-azaspiro[2.5]octane-1-carbonyl)-2,3,4,5-tetrahydrobenzo[f][1,4]oxazepine-8-carboxamide] gave an IC50 of 100 to 500 nM.
In the case of `COCCC(=O)N1Cc2ccc(C(=O)NO)cc2OC[C@@H]1C` [(S)-N-hydroxy-4-(3-methoxypropanoyl)-3-methyl-2,3,4,5-tetrahydrobenzo[f][1,4]oxazepine-8-carboxamide], the IC50 is reported as ≤ 100 nM.
With `CO[C@H]1C[C@@H](C(=O)N2Cc3ccc(C(=O)NO)cc3OC[C@@H]2C)C1` the IC50 was ≤ 100 nM.
With `C[C@H]1OCCC[C@@H]1C(=O)N1Cc2ccc(C(=O)NO)cc2OC[C@@H]1C` [(S)-N-hydroxy-3-methyl-4-((2R,3S)-2-methyltetrahydro-2H-pyran-3-carbonyl)-2,3,4,5-tetrahydrobenzo[f][1,4]oxazepine-8-carboxamide] the IC50 was ≤ 100 nM.
Work on `O=C(NO)c1ccc2c(c1)O[C@@H]1C[C@H]2N(C(=O)C2CCOCC2)C1` [(2R,5R)-N-hydroxy-4-(tetrahydro-2H-pyran-4-carbonyl)-2,3,4,5-tetrahydro-2,5-methanobenzo[f][1,4]oxazepine-8-carboxamide] yielded an IC50 of 100 to 500 nM.
With `C[C@H]1COc2cc(C(=O)NO)ccc2CN1C(=O)c1ccccc1` [(S)-4-benzoyl-N-hydroxy-3-methyl-2,3,4,5-tetrahydrobenzo[f][1,4]oxazepine-8-carboxamide] the IC50 was ≤ 100 nM.
In the case of `C[C@H]1COc2cc(C(=O)NO)ccc2CN1C(=O)C(C)(C)C1CCOCC1` [(S)-N-hydroxy-3-methyl-4-(2-methyl-2-(tetrahydro-2H-pyran-4-yl)propanoyl)-2,3,4,5-tetrahydrobenzo[f][1,4]oxazepine-8-carboxamide], the IC50 is reported as ≤ 100 nM.
`C[C@H]1COc2cc(C(=O)NO)ccc2CN1C(=O)[C@@H]1CCCOC1` [(S)-N-hydroxy-3-methyl-4-((R)-tetrahydro-2H-pyran-3-carbonyl)-2,3,4,5-tetrahydrobenzo[f][1,4]oxazepine-8-carboxamide] was tested, and the IC50 was ≤ 100 nM.
With `Cc1nc(CC(=O)N2CCOc3cc(C(=O)NO)ccc3C2)cs1` [N-hydroxy-4-(2-(2-methylthiazol-4-yl)acetyl)-2,3,4,5-tetrahydrobenzo[f][1,4]oxazepine-8-carboxamide] the IC50 was 100 to 500 nM.
`CC(C)(C(=O)N1CCOc2cc(C(=O)NO)ccc2C1)c1cccnc1` [N-hydroxy-4-(2-methyl-2-(pyridin-3-yl)propanoyl)-2,3,4,5-tetrahydrobenzo[f][1,4]oxazepine-8-carboxamide] showed an IC50 of 100 to 500 nM.
For `O=C(NO)c1ccc2c(c1)OCCN(C(=O)C1CC13CCCNC3)C2` (stereo not drawn) [N-hydroxy-4-(5-azaspiro[2.5]octane-1-carbonyl)-2,3,4,5-tetrahydrobenzo[f][1,4]oxazepine-8-carboxamide], the IC50 was > 500 nM.
